In paper PMC8799869, “D-enantiomers of CATH-2 enhance the response of macrophages against Streptococcus suis serotype 2” (Journal of Advanced Research, 2021):
In brackets after ≈: the same amount, converted by molar mass. Read-outs that look alike come from different tables or passages of the source. Where a SMILES comes first, the peptide text is derived from it. Where no end group is shown, it is not given here. [ ]: non-standard residue; d: D form.

Key:
[1] = test system: murine BMDMs; assay: BMDM differentiation after peptide exposure at day 1, flow cytometry; assay type: cell-based, mouse; conditions: 1.25 µM peptide at day 1 of culture for 24 h
Procedure: Murine bone marrow cells, isolated from the femur and tibia of both hindlegs, were stored in fetal calf serum (FCS) (Corning, NY, USA) containing 10% DMSO (Sigma-Aldrich, MO, USA) in liquid nitrogen. Cells were grown at a concentration of 5x10^5 cells/mL in RPMI-1640 without phenol red (Thermo Fisher Scientific, MA, USA) supplemented with 10% FCS and 1% penicillin/streptomycin (Thermo Fisher Scientific). Bone marrow-derived macrophages (BMDM) and bone marrow-derived dendritic cells (BMDC) were cultured by adding 20 ng/mL murine recombinant M−CSF or GM-CSF (PeproTech, NJ, USA) respectively. Where indicated, cells were supplemented with 1.25 µM peptide at day 1, which was replaced by fresh medium at day 2. The medium of all cells was replaced by fresh medium without antibiotics at day 3. At day 6 cells were stimulated with 1 µg/mL LTA from S. aureus (LTA-SA) (Invivogen, CA, USA) or with the different S. suis strains at a multiplicity of infection (MOI) of 0.2. Medium containing S. suis was removed after 2 h and replaced by medium containing 200 µg/mL gentamycin (Sigma) and left for an additional 22 h. After 24 h, medium was collected and stored at −20 °C for cytokine measurements. […] Cells were stained with antibodies (Table 1) for 20 min, washed and measured using aBD FACSCanto-II (BD Biosciences, NJ, USA) and analyzed with FlowJo software (Ashland, OR, USA).

[2] = test system: S. suis serotype 2 strain S735; assay type: cell-based, Streptococcus suis; conditions: 3 h
Procedure: (§1) S. suis serotype 2 strains P1/7, D282, S735, and OV625 were grown into mid-logarithmic phase for 3–4 h at 37 °C in THB, after which bacteria were centrifuged at 1200×g for 10 min at 4 °C and resuspended in fresh THB. Bacterial concentration was determined by measuring optical density at 620 nm with an OD of 1.0 being equivalent to 1x10^8 colony forming units (CFU)/mL. 1x10^6 CFU/mL S. suis was mixed with different concentrations of D-CATH-2 and derivatives (0.63 – 40 µM) and incubated for 3 h at 37 °C. Ten-fold dilutions were prepared and spread in Tryptic Soy agar (TSA) plates containing 5% (v/v) defibrinated sheep blood (Oxoid) and colonies were allowed to grow for 48 h. Minimal Bactericidal Concentration (MBC) was defined as ≤100 CFU/mL (2 log CFU/mL), the detection limit of the assay.

[3] = test system: S. suis serotype 2 strain OV625; assay type: cell-based, Streptococcus suis; conditions: 3 h
Procedure: as §1

[4] = test system: S. suis serotype 2 strain P1/7; assay type: cell-based, Streptococcus suis; conditions: 3 h
Procedure: as §1

[5] = test system: S. suis serotype 2 strain D282; assay type: cell-based, Streptococcus suis; conditions: 3 h
Procedure: as §1

[6] = Isothermal titration calorimetry (ITC), peptide binding to LTA; parameters: species or system S. aureus; conditions: 200 µM peptide titrated into 37.2 µM LTA-SA, MilliQ:dPBS 3:1, 37 °C, three experiments averaged, independent model, read-out: Kd, dissociation coefficient
Procedure: The interaction between the D-CATH-2 peptides and LTA-SA was tested using isothermal titration calorimetry (ITC). All ITC experiments were performed on a Low Volume NanoITC (TA instruments - Waters LLC, New Castle, USA). Peptide solution or 37.2 µM LTA-SA was prepared in MilliQ:dPBS (Gibco) in a 3:1 ratio. The chamber was filled with 164 µL LTA-SA and the peptide was loaded in the 50 µL syringe. Every 300 s, 1.99 µL peptide was titrated into the chamber at 37 °C. Data was analyzed using the Nano Analyze software (TA instruments-Waters LLC). The data of three experiments was averaged and an independent model was used to determine the peptide-LTA interaction.

[7] = test system: S. suis P1/7; assay: In vivo prophylactic S. suis P1/7 infection model; parameters: species or system mouse
Procedure: Upon arrival, mice were allowed to acclimatize for at least 7 days before the start of the experiment. The experiment was performed as depicted in Fig. 5A. The experiment was repeated twice to obtain in total 4 mice in the control groups and 12 mice in the infection groups. At day 1, mice were subcutaneously injected in the neck region with 1 mg/kg D-C(1–21) in PBS/cholesterol or with PBS/cholesterol alone. Cholesterol was added 5% v/v, 2 mg/ml in ethanol. The peptide and control groups were blinded to avoid any influence by the researchers. After 24 h (group 1) or after 7 days (group 2), mice were intraperitoneally infected with 10^7 CFU S. suis P1/7 in THB or with THB alone as control. 24 h after infection, a few drops of blood were collected via cheek puncture for bacterial count. During the infection phase of the experiment, mice were checked every 12 h in the acute phase of disease (first 48 h) and thereafter daily until the end of the study. A cumulative clinical score was given to the mice as measure of disease using several parameters as depicted in Table 4, according to Seitz et al.. When a mouse obtained a clinical score of 2 for a minimum of 3 out of 8 scoring points two days in a row, or in case of severe weight loss (>20%), the mouse was euthanized for animal welfare reasons (humane end point (HEP)) and the organs were collected for bacterial counts as described hereafter. Seven days post infection all mice were sacrificed for further analysis. Mice were anesthetized using isoflurane and 1 mL blood was drawn via heart puncture, followed by cervical dislocation. The peritoneum was flushed with 5 mL PBS/0.5 mM EDTA and diluted in 10 mL ice cold PBS/0.5% FCS. Spleen, lungs, liver, lymph nodes (axillary, inguinal, and mesenteric), brain, kidney and bone marrow were collected and stored in ice cold PBS. All organs, except the bone marrow and lymph nodes were weighed using a Sartorius microbalance. The peritoneal lavage (PTL) samples were counted using the Countess II Automated Cell Counter (Invitrogen, CA, USA). The lungs, liver, brain and kidney were meshed through a 40 µm filter (BD Biosciences) with 5 mL PBS to obtain single cell suspensions. Spleen and lymph nodes were digested with digestion buffer (1.5 WU/mL liberase TL grade, 100 Units/ml recombinant DNAse I, both Roche) for 30 min at 37 °C and meshed through a 40 µm filter using 5 mL PBS/0.5 mM EDTA. The red blood cells of the blood and spleen were lysed using an isotonic ammonium chloride buffer (155 mM NH4Cl, 10 mM KHCO3, 0.1 mM EDTA) for 5–10 min on ice, washed 1x with PBS and were resuspended in FACS buffer (PBS/0.5% BSA). Bone marrow samples were flushed out the femur and tibia of both legs with 5 mL PBS and filtered through a 40 µm filter. A sample of the blood, bone marrow, spleen, peritoneal lavage and lymph nodes was taken and stained for 30 min with different antibody panels (Table 1) and measured using the BD FACS Canto-II and analyzed with FlowJo V8. Of the lungs, liver, brain, kidney, spleen and peritoneal lavage samples, a 10-fold serial dilution was prepared and the samples were plated on TSA plates containing 5% (v/v) defibrinated sheep blood. The colonies were allowed to grow for 48 h at 37 °C. The number of colonies were counted, with ≤ 100 CFU/mL (2 log CFU/mL) as detection limit of the assay and calculated as CFU/mg organ.

[8] = test system: E. coli; conditions: in ovo administration three days before hatch; cited from earlier work
Source text: (§2) In this study injection of D-C(1–21) reduced disease severity and increased the survival rate, although the differ ...

[9] = previously shown; read-out: dissociation coefficient to LPS; cited from earlier work
Procedure: Inhibition of LPS-induced, and to a lesser extent LTA-induced activation, is a widely studied immunomodulatory aspect of cathelicidins. […] The dissociation coefficient to LTA is with 2–10 µM much higher than previously shown for L-CATH-2 to LPS with a dissociation coefficient of 0.08 µM, [32] indicating a stronger binding to LPS than to LTA. However, since D-CATH-2 was highly efficient at inhibiting LTA-induced activation, it might also be that the inh ...

[10] = intravenous administration; blood and peritoneum; cited from earlier work
Source text: as §2

Compound | MBC [2] [µM] | MBC [3] [µM] | MBC [4] [µM] | MBC [5] [µM] | Kd [6] [nM] | other results
CC[C@@H](C)[C@@H](NC(=O)[C@@H](CCCCN)NC(=O)[C@@H](CCCNC(=N)N)NC(=O)[C@@H](CC(C)C)NC(=O)[C@@H](Cc1ccccc1)NC(=O)[C@@H](CCCNC(=N)N)NC(=O)CNC(=O)[C@@H](Cc1ccccc1)NC(=O)[C@H](N)CCCNC(=N)N)C(=O)N[C@H](CCCNC(=N)N)C(=O)N[C@H](CCCNC(=N)N)C(=O)N[C@H](Cc1ccccc1)C(=O)N[C@H](CCCNC(=N)N)C(=O)N1CCC[C@@H]1C(=O)N[C@H](CCCCN)C(=O)N[C@@H](C(=O)N[C@@H](C(=O)N[C@@H](C(=O)N[C@@H](C(=O)N[C@@H](C(=O)N[C@H](CCC(N)=O)C(N)=O)[C@H](C)CC)[C@H](C)O)[C@H](C)CC)[C@H](C)O)C(C)C [D-C(1–21)] (H-[dR][dF]G[dR][dF][dL][dR][dK][dI][dR][dR][dF][dR][dP][dK][dV][dT][dI][dT][dI][dQ]-NH2; N-terminus and C-terminus assumed) | 2.5 (≈ 6.72 µg/mL) | 0.6 to 5 | 2.5 (≈ 6.72 µg/mL) | 2.5 to 5 | 10200 | BMDM differentiation efficiency, percentage of cells expressing F4/80 at day 6 [1]: most pronounced; cumulative clinical score ([7]; 1 mg/kg s.c., infected 24 h post peptide injection, late stage of disease): small reduction of cumulative clinical score; cumulative clinical score ([7]; 1 mg/kg s.c., infected 7 days post peptide injection, acute phase of disease): reduction in cumulative clinical score; survival ([7]; 1 mg/kg s.c., infected either 24 h or 7 days post peptide injection): higher chance of survival; bodyweight loss up to 48 h post infection ([7]; 1 mg/kg s.c., infected i.p. with 10^7 CFU 24 h or 7 d post peptide injection, same in control mice): approximately 8%; bacteria in the blood 7 days post infection ([7]; 24 h D-C(1–21) treated mice): no mice had bacteria left in the bloodstream; number of S. suis positive organs per mouse ([7]; 24 h D-C(1–21) treated mice versus untreated, not statistically significant): generally less S. suis positive organs; total CFU counts in organs ([7]; 24 h D-C(1–21) treated mice versus untreated, not statistically significant, not found for 7 day treated mice): lower total CFU counts; S. suis bacteria in the bloodstream 24 h post infection ([7]; all mice, treated or not): 10^5-10^6 CFU/mL; bacterial counts in organs of mice reaching the HEP ([7]; treated mice reaching HEP before the end of the study, especially in the brain): less bacterial counts
CC[C@@H](C)[C@@H](NC(=O)[C@@H](CCCCN)NC(=O)[C@@H](CCCNC(=N)N)NC(=O)[C@@H](CC(C)C)NC(=O)[C@@H](Cc1ccccc1)NC(=O)[C@H](N)CCCNC(=N)N)C(=O)N[C@H](CCCNC(=N)N)C(=O)N[C@H](CCCNC(=N)N)C(=O)N[C@H](Cc1ccccc1)C(=O)N[C@H](CCCNC(=N)N)C(=O)N1CCC[C@@H]1C(=O)N[C@H](CCCCN)C(=O)N[C@@H](C(=O)N[C@@H](C(=O)N[C@@H](C(=O)N[C@@H](C(=O)N[C@@H](C(=O)N[C@H](CCC(N)=O)C(N)=O)[C@H](C)CC)[C@H](C)O)[C@H](C)CC)[C@H](C)O)C(C)C [D-C(4–21)] (H-[dR][dF][dL][dR][dK][dI][dR][dR][dF][dR][dP][dK][dV][dT][dI][dT][dI][dQ]-NH2; N-terminus and C-terminus assumed) | 2.5 (≈ 5.82 µg/mL) | 1.25 to 2.5 | 5 to 10 | 2.5 to 5 | 2120 | –
CC[C@@H](C)[C@@H](NC(=O)[C@@H](CCCCN)NC(=O)[C@@H](CCCNC(=N)N)NC(=O)[C@@H](CC(C)C)NC(=O)[C@@H](Cc1ccccc1)NC(=O)[C@@H](CCCNC(=N)N)NC(=O)CNC(=O)[C@@H](Cc1ccccc1)NC(=O)[C@H](N)CCCNC(=N)N)C(=O)N[C@H](CCCNC(=N)N)C(=O)N[C@H](CCCNC(=N)N)C(=O)N[C@H](Cc1ccccc1)C(=O)N[C@H](CCCNC(=N)N)C(=O)N1CCC[C@@H]1C(=O)N[C@H](CCCCN)C(=O)N[C@@H](C(=O)N[C@@H](C(=O)N[C@@H](C(=O)N[C@@H](C(=O)N[C@@H](C(=O)N[C@H](CCC(N)=O)C(=O)NCC(=O)N[C@H](CO)C(=O)N[C@H](C)C(=O)N[C@H](CCCNC(=N)N)C(=O)N[C@H](Cc1ccccc1)C(N)=O)[C@H](C)CC)[C@H](C)O)[C@H](C)CC)[C@H](C)O)C(C)C [D-CATH-2] (H-[dR][dF]G[dR][dF][dL][dR][dK][dI][dR][dR][dF][dR][dP][dK][dV][dT][dI][dT][dI][dQ]G[dS][dA][dR][dF]-NH2; N-terminus assumed) | 1.25 to 2.5 | 1.25 to 5 | 2.5 to 5 | 2.5 to 5 | 3040 | protection of chickens against infection [8]: protects chickens up to 7 days post hatch
L-CATH-2: natural chicken cathelicidin-2 (RFGRFLRKIRRFRPKVTITIQGSARF-NH2) | – | – | – | – | – | Kd [9]: 80 nM
LL-37 | – | – | – | – | – | survival and bacterial load in septic mice [10]: improved the survival and reduced the bacterial load
